# Measured values published in patent publication US20260125352A1, “PROCESSES FOR CONVERTING FURFURALS” (Origin Materials Operating, Inc., priority 2023, published 2026).
# Experiment: Solubility of amine and their hydrochlorides in solvents at room temperature
# Format: physicochemical
# Settings: for Solubility of amines in acetone / Solubility of amines in methanol / Solubility of amines in methylfurfural (MF) / Solubility of amines in propylene carbonate / Solubility of amines in toluene / Solubility of amines in water: free amine, low values at saturation; for Solubility of amines in acetone / Solubility of amine hydrochloride salts in acetone: acetone μ = 20.7, high values not necessarily at saturation; for Solubility of amines in methanol / Solubility of amine hydrochloride salts in methanol: methanol μ = 32.7, high values not necessarily at saturation; for Solubility of amines in methylfurfural (MF) / Solubility of amine hydrochloride salts in methylfurfural (MF): methylfurfural (MF) μ = 41.9, high values not necessarily at saturation; for Solubility of amines in propylene carbonate / Solubility of amine hydrochloride salts in propylene carbonate: propylene carbonate μ = 64.9, high values not necessarily at saturation; for Solubility of amines in toluene / Solubility of amine hydrochloride salts in toluene: toluene μ = 2.4, high values not necessarily at saturation; for Solubility of amines in water / Solubility of amine hydrochloride salts in water: water μ = 78.4, high values not necessarily at saturation; for Solubility of amine hydrochloride salts in acetone / Solubility of amine hydrochloride salts in methanol / Solubility of amine hydrochloride salts in methylfurfural (MF) / Solubility of amine hydrochloride salts in propylene carbonate / Solubility of amine hydrochloride salts in toluene / Solubility of amine hydrochloride salts in water: hydrochloride salt of the amine precursor
SMILES,Solubility of amines in acetone [wt. %],Solubility of amines in methanol [wt. %],Solubility of amines in methylfurfural (MF) [wt. %],Solubility of amines in propylene carbonate [wt. %],Solubility of amines in toluene [wt. %],Solubility of amines in water [wt. %],Solubility of amine hydrochloride salts in acetone [wt. %],Solubility of amine hydrochloride salts in methanol [wt. %],Solubility of amine hydrochloride salts in methylfurfural (MF) [wt. %],Solubility of amine hydrochloride salts in propylene carbonate [wt. %],Solubility of amine hydrochloride salts in toluene [wt. %],Solubility of amine hydrochloride salts in water [wt. %]
CCCCCN(CCCCC)CCCCC [triamylamine],49.87,9.27,2.49,0.17,47.61,0.00,–,–,–,–,–,–
CCN(C(C)C)C(C)C [Hunig's base],49.20,49.11,14.35,4.59,46.90,0.30,15.01,33.08,26.83,34.05,<4.91,33.39
"CC(C)CN(CC(C)C)CC(C)C [triisobutylamine, 2-methyl-N,N-bis(2-methylpropyl)propan-1-amine]",–,–,–,–,–,–,34.35,47.15,24.44,31.21,51.82,25.88
CN(C)C [trimethylamine],–,–,–,–,–,47.16,<0.09,34.66,<0.13,<1.16,<0.12,38.39
